What was measured:
[1] = test system: S. pneumoniae encapsulated serotype 3 strain WU2; experiment: Inhibition of S. pneumoniae adhesion to A549 cells, strain WU2; assay type: cell-based, Streptococcus pneumoniae
Method: (§1) Inhibition of S. pneumoniae adhesion to A549 cells by addition of phages: A549 cells (type II epithelial lung carcinoma cells; ATCC, Rockville, Md., USA) were grown in DMEM medium supplemented with 10% foetal calf serum with penicillin and streptomycin (100 μg/ml each) at 37° C. in a humidified incubator. A549 cells (2.5×10^4/well) were cultured on fibronectin coated plates, to increase A549 cell adhesion to the wells and prevent their detachment during washings, in the absence of antibiotic for 24 hours at which time the cells reached confluence (5×10^4 cells/well on average). The plates were blocked with 1% gelatine for 1 hour and 10^6 CFU bacteria were added per well. The adhesion of S. pneumoniae to uncoated plates was negligible (<80 CFU/ml). The number of bacteria that adhered to fibronectin coated plates (8000±100 SD CFU/ml on average) was subtracted afterwards to determine the net number of bacteria that adhered to the A549 cells only. rFBA at the denoted concentrations (ranging from 5-30 μg/ml) was added to the cultured cells and incubated for an hour. Following extensive washings S. pneumoniae (10^6 CFU) were added for 1 hour incubation. To identify phages able to interfere in bacterial adhesion the bacteria were preincubated with the phages for 1 hour centrifuged and added to the cultured cells. […]

[2] = test system: Unencapsulated S. pneumoniae serotype 3 strain 3.8DW; experiment: Inhibition of S. pneumoniae adhesion to A549 cells, strain 3.8DW; assay type: cell-based, Streptococcus pneumoniae
Method: as §1

[3] = test system: S. pneumoniae encapsulated serotype 2 strain D39; experiment: Inhibition of S. pneumoniae adhesion to A549 cells, strain D39; assay type: cell-based, Streptococcus pneumoniae; settings: p<0.001
Method: as §1, with “incubation.” for “incubation. To identify phages able to interfere in bacterial adhesion the bacteria were preincubated with the phages for 1 hour centrifuged and added to the cultured cells.”
(§2) The ability of FC derived synthetic peptide to interfere in S. pneumoniae adhesion to A459 cells was analyzed. […]

[4] = test system: S. pneumoniae unencapsulated serotype 2 strain R6; experiment: Inhibition of S. pneumoniae adhesion to A549 cells, strain R6; assay type: cell-based, Streptococcus pneumoniae
Method: as §1, with “incubation.” for “incubation. To identify phages able to interfere in bacterial adhesion the bacteria were preincubated with the phages for 1 hour centrifuged and added to the cultured cells.”
as §2

rFBA = molecular target: T1, rFBA (Streptococcus pneumoniae serotype 4, UniProt P0A4S1); experiment: Western blot like assay of FCRP binding to rFBA; settings: rFBA on nitrocellulose probed with FCRP; FIG. 7C
T1 construct: made in house; host or cells: E. coli BL21(DE3)pLysS
Method: Western blots: rFBA and FCRP were separated by 1D-SDS PAGE, transferred to nitrocellulose and probed with FCRP or rFBA, respectively. Rabbit anti-FCRP-KLH serum or rabbit anti rFBA was added respectively. In both cases, anti-rabbit IgG (Jackson ImmunoResearch, West Grove, Pa.) was used for final identification. In the control experiment preimmune serum was used as first antibody.
To determine more directly whether FCRP binds to rFBA, Western blot like assays were performed where rFBA is separated using 1D SDS-PAGE, transferred to a nitrocellulose membrane and probed with FCRP. Binding of FCRP was detected by incubating the membrane sequentially with rabbit anti-FCRP-KLH serum and anti-rabbit IgG. […] In the control (FIG. 7D) the first antibody was a pre-immune serum. In the converse experiment, when FCRP is separated on SDS-PAGE, a band of approximately 1.5 kDa corresponding to the molecular weight of FCRP is bound by rFBA (FIG. 7 E). In the control (FIG. 7F) the first antibody was a pre-immune serum.

[5] = test system: S. pneumoniae serotype 3 strain WU2; experiment: Intranasal inoculation mouse model: nasopharyngeal and lung colonization; assay type: in vivo, BALB/c mice; settings: for number of bacteria in the lungs: p<0.05
Method: Inhibition of S. pneumoniae nasal and lung colonization with flamingo cadherin-related peptide: Seven weeks old BALB/c female mice (Harlan Laboratories, Israel) were housed in sterile conditions under 12 hour light/dark cycles and fed Purina Chow and tap water ad libitum. Animal experimental protocols were reviewed and approved by the Institutional Animal Care and Use Committee of the Ben-Gurion University of the Negev, Beer Sheva, Israel. For respiratory challenge with virulent S. pneumoniae mice were anaesthetized with Isoflurane (RxElite, Meridian, Id., USA) and inoculated intranasally (i.n.) with the denoted colony forming units (CFU) bacteria (in 25 μl PBS) prior and after treatment with the flamingo cadherin derived peptide at the denoted concentrations. […] The experiments were performed with groups of 4 mice at each treatment and each time point and the experiments were repeated on three different occasions.
To find whether FC peptide is capable of inhibiting S. pneumoniae colonization, mice were inoculated intranasally prior and after treatment with the FC-derived peptide at the denoted concentration. S. pneumoniae serotype 3, strain WU2 bacteria were treated with FC peptide, excess peptide was removed and the bacteria were inoculated intranasally. […] Using this size of inoculum, a natural clearance of bacteria from the lungs occurred 24 hours and 48 hours following inoculation.
Seven week old BALB/c female mice were anaesthetized with Isoflurane (RxElite, Meridian, Id.) and inoculated intranasally with S. pneumoniae serotype 3 strain WU2 ([…], a highly virulent bacterial strain) after treatment with 40 μg synthetic Flamingo cadherin receptor derived peptide (FCRP) for 1 hr. […]

[6] = test system: S. pneumoniae serotype 3 strain WU2; experiment: Intraperitoneal lethal dose systemic infection (sepsis) mouse model; assay type: in vivo, BALB/c mice
Description: 1) A lethal dose of S. pneumoniae serotype 3 strain WU2 (100 CFU) was used in this experiment. Bacteria were either untreated or treated ex-vivo for 1 hr with FCRP and used to inoculate intraperitoneally 7 weeks old BALB/c mice.
2) A lethal dose of S. pneumoniae serotype 3 strain WU2 (100 CFU) was used in this experiment. Bacteria were co-administered intraperitonealy to 7 weeks old BALB/c mice in the presence and absence of FCRP. […] Furthermore, in mice infected in the absence of FCRP bacteria could be found in the spleens of 100% of the (FIG. 15B) mice.
3) In a similar experiment, the mice were inoculated with bacteria in the presence and absence of FCRP and the mice were monitored for their survival.

[7] = test system: S. pneumoniae serotype 3 strain WU2; experiment: Intranasal inoculation mouse model: nasopharyngeal and lung colonization; assay type: in vivo, BALB/c mice; settings: 10^7 bacteria

## H-Ala-Asp-Ser-Asp-Ser-Asp-Ser-Asp-Leu-Ser-Leu-Glu-Glu-Glu-Arg-OH (H-ADSDSDSDLSLEEER-OH; listed as Homo sapiens) [FCRP, 15 amino acid peptide from Flamingo-cadherin]
[1]; 15 μg/well, FIG. 3A
  maximal inhibition of adhesion to A549 cells: 80%
[2]; 20 μg/well, FIG. 3B
  maximal adhesion inhibition: 41%
[3]; 5 μg/well
  inhibition of adhesion to A549: significantly
[3]; 20 μg/well
  inhibition of adhesion to A549 cells: 90%
[4]; 5 μg/well, p<0.001
  inhibition of adhesion to A549: significantly
[4]; 15 μg/well
  inhibition of adhesion to A549 cells: 75%
rFBA
  binding of FCRP to rFBA: a band of 33.5 kDa was shown to bind FCRP
[5]; 5×10^6 bacteria, 40 μg ex vivo, FIG. 11A
  bacterial colonization: significant inhibition of bacterial colonization
[5]; 5×10^6 bacteria, 40 μg ex vivo, FIG. 11B
  aspiration to the lung: reduced aspiration to the lung
[5]; 5×10^6 bacteria, 40 μg ex vivo, FIG. 11C
  pneumonia development: reduced pneumonia development
[5]; 10^6 bacteria treated ex vivo 1 hr with 40 μg, 3, 24, 48 hours, FIG. 9A
  nasopharyngeal colonization: inhibited nasopharyngeal colonization significantly
[5]; 10^6 bacteria treated ex vivo 1 hr with 40 μg, FIG. 9B
  aspiration to the lungs: significant inhibition of aspiration to the lungs
[5]; 10^7 bacteria, pre-treatment, 3 and 48 hrs
  bacterial load (FIG. 13A): reduced bacterial load significantly
[5]; 10^7 bacteria, pre-treatment, 24 hour
  bacterial load in lungs (FIG. 13B): clear reduction in bacterial load
[5]; co-administered, 4 hours after inoculation
  number of bacteria in the lungs: reduced significantly
[5]; inoculum 5×10^5, 20 μg/ml, 3, 6, 24 and 48 hours, FIG. 4A
  colonization in the nasopharynx: inhibited colonization in the nasopharynx significantly
[5]; inoculum 5×10^5, 40 μg/ml, all time points, FIG. 4A
  colonization of the nasopharynx: prevented S. pneumoniae colonization of the nasopharynx at all time points tested
[5]; inoculum 5×10^5, 20 or 40 μg/ml, 3 and 6 hours, FIG. 4B
  colonization of the lung: inhibited significantly colonization of the lung
[5]; inoculum 10^6, 20 μg/ml, 3, 6, 24 and 48 hours, FIG. 4C
  colonization in the nasopharynx: inhibited colonization in the nasopharynx significantly
[5]; inoculum 10^6, 40 μg/ml, 3, 6 and 24 hours, FIG. 4D
  colonization of the lung: significantly inhibited colonization of the lung
[5]; inoculum 10^6, 40 μg/ml, FIG. 4C
  colonization of the nasopharynx: significantly higher ability to inhibit S. pneumoniae colonization of the nasopharynx
[5]; inoculum 10^6, 20 or 40 μg/ml, 48 hours, FIG. 4D
  bacteria in the lungs: no bacteria could be detected in the lungs
[5]; new peptide preparation, 48 hr following inoculation, FIG. 10C
  bacteria in the lungs: no bacteria could be found in the lungs
[5]; new peptide preparation, pneumonia-causing batch, 10^6 bacteria, FIG. 10A
  nasopharyngeal colonization: prevented completely
[5]; new peptide preparation, pneumonia-causing batch, 10^6 bacteria, FIG. 10B
  aspiration of the bacteria to the lungs: prevented completely
[5]; peptide 1 hr after inoculation, 3 hours after peptide
  number of bacteria in the lungs: reduced significantly
[6]; 100 CFU i.p., bacteria treated ex-vivo 1 hr, FIG. 14, p<0.05
  survival rate: increased the survival rate of the mice significantly
[6]; 100 CFU i.p., co-administered, FIG. 15
  bacteria in the spleens: no bacteria could be recovered from the spleens
[6]; lethal dose i.p., co-administration, FIG. 16, p<0.001
  survival: significant increase in survival
[7]; one post inoculation treatment, 3 and 48 hrs
  bacterial load (FIG. 13A): reduced bacterial load significantly
[7]; post inoculation treatment, 24 hour
  bacterial load in lungs (FIG. 13B): clear reduction in bacterial load

B1: rFBA: Recombinant Fructose Bisphosphate Aldolase (FBA; SP0605 Streptococcus pneumoniae TIGR4), 33.5 kDa FBA-HAT fusion protein (protein)
chain: MAIVSAEKFVQAARDNGYAVGGFNTNNLEWTQAILRAAEAKKAPVLIQTSMGAAKYMGGYKVARNLIANLVESMGITVPVAIHLDHGHYEDALECIEVGYTSIMFDGSHLPVEENLKLAKEVVEKAHAKGISVEAEVGTIGGEEDGIIGKGELAPIEDAKAMVETGIDFLAAGIGNIHGPYPVNWEGLDLDHLQKLTEALPGFPIVLHGGSGIPDEQIQAAIKLGVAKVNVNTECQIAFANATRKFARDYEANEAEYDKKKLFDPRKFLADGVKAIQASVEERIDVFGSEGKA
modifications: left off: small tags and cut ends
notes: Recombinant Fructose Bisphosphate Aldolase (FBA; SP0605 Streptococcus pneumoniae TIGR4), 33.5 kDa FBA-HAT fusion protein
[1]; 0.5 μg/well, protein added to cells, FIG. 5A
  inhibition of adhesion to A549 cells: 63%
[2]; 12 μg/well, protein added to cells, FIG. 5B
  inhibition of adhesion to A549 cells: 92%

Reference: US8575093B2, “Composition and method for treating Streptococcus pneumoniae infection” (priority 2006, dated 2013)
